Experiment: Solubility of metal alkoxide in solvent
Format: physicochemical
Conditions: solution in heptane
From the text: To provide a safer material, metal alkoxides are often dissolved in a solvent. In general, liquids are, for example, easier to transfer from drums or cylinders into reactors (reducing the exposure of human handlers to dangerous materials), more easily kept under an inert atmosphere, and provide more options for modes of addition to the substrate. […] The low solubilities of many alkoxides have been attributed to the ionic character and the extent of oligomerization or polymerization in solution. Another factor affecting solubility in an alcohol solvent is the propensity of alkoxides to form insoluble alcoholate complexes with the alcohol. Metal alkoxides are somewhat more soluble in polar ethereal solvents such as tetrahydrofuran and the polyethers (glymes). However, even in ethers, the solubility is generally less than 50%, especially at or below room temperature (that is, at or below 25° C.). Moreover, the range of polar solvents is somewhat limited as a result of the reactivity of the alkoxide. Furthermore, in some cases the solvent of choice for the desired reaction involving a metal alkoxide is not compatible with the alkoxide or the metal alkoxide is insoluble therein.
In one set of studies, potassium 3,7-dimethyl-3-octanoxide (KDMO), was prepared by the reaction of potassium metal with 3,7-dimethyl-3-octanol in heptane in a pressure reaction vessel. […]

## CCC(C)([O-])CCCC(C)C.[K+] (stereo not shown) [Example 1, Potassium 3,7-Dimethyl-3-octanoxide]
  concentration of alkoxide solution prepared: 70-75 wt %
